Several values for one entry are separate records, joined by “and”; a condition that tells them apart may be missing. Identical values can stand only once.
Tests used:
Assay type in all cases: cell-based
[1] = system: SARS-CoV-2 Delta (B.1.617.2); experiment: microbe, parasite or virus in culture
[2] = system: SARS-CoV-2 Omicron (B.1.1.529); experiment: microbe, parasite or virus in culture
[3] = system: SARS-CoV-2 Delta (B.1.617.2); experiment: CPE assay, neutral red, Vero E6 cells with 2 μM CP-100356, Delta

Structure (SMILES): COC(=O)/C=C/C(=O)NNC(=O)CCc1ccccc1C(=O)N[C@H](C)c1cccc2ccccc12 [Compound 7, methyl(R,E)-4-(2-(3-(2-((1-(naphthalen-1 yl)ethyl)carbamoyl)phenyl)propanoyl)hydrazineyl)-4-oxobut-2-enoate]
- Virus Titer [1]: 4.5 CCID50/mL (Log10) and 4.7 CCID50/mL (Log10) and 5.0 CCID50/mL (Log10)
- Virus Titer [2]: 2.5 CCID50/mL (Log10) and 3.0 CCID50/mL (Log10)
- Percent Cytopathic Effect (Neutral Red) [3]: 49.9% and 76.0% and 99.5% and 99.2%
